How the values were obtained:
[1] = tested on: kip3-30(ts) kar3Δ (DS752) double mutant; experiment: Benomyl suppression of lethality of the kip3-30(ts) kar3 double mutant, spot growth on YPD; type: cell-based, Saccharomyces cerevisiae; details: medium containing a low concentration of benomyl, restrictive temperature (FIG. 1C)
[2] = tested on: kip3-20(ts) dyn1Δ (DS765) double mutant; experiment: Benomyl suppression of lethality of the kip3(ts) dyn1 double mutant, spot growth on YPD; type: cell-based, Saccharomyces cerevisiae; details: 37° C., solid YPD medium with 1% DMSO, 5 or 10 μg/ml benomyl, 3 d; little growth in the absence of benomyl
Method: Since one phenotype of the kip3 single mutant and the kip3(ts) dyn1 double mutant is increased microtubule abundance, it was tested whether the microtubule-depolymerizing drug benomyl could suppress the lethality of the kip3(ts) dyn1 double mutant.

CCCCNC(=O)n1c(NC(=O)OC)nc2ccccc21 [benomyl]
lethality of the kip3-30(ts) kar3 double mutant [1]: partially suppressed
growth of the kip3(ts) dyn1 double mutant (suppression of lethality) [2]: significant growth

From patent publication US6905840B1, “Double motor mutant assay for antifungal agents” (Cytokinetics, Inc., priority 2003, dated 2005)
